Assays:
human MC1R [1] = molecular target: T1, human MC1R (Homo sapiens, UniProt Q01726); assay: cAMP accumulation in MM96L cells transiently transfected with wild type MC1R; format: cell-based; details: 30 min stimulation with 10 μM compound
Experimental: In a similar assay testing for MC1R agonism, MM96L cells were transiently transfected with wild type MC1R and stimulated with compound (10 μM) for different time points, with cAMP accumulation compared to basal cAMP levels and the cAMP response to stimulation with NDP-MSH

human MC1R (hMC1R) = molecular target: T2, human MC1R (hMC1R) (Homo sapiens, UniProt Q01726); assay: Human MC1R radioligand binding assay (displacement of 125I-labeled NDP-MSH, Perkin Elmer hMC1R membranes); details: displacement of [125I]NDP-MSH, compounds tested as trifluoroacetate or hydrochloride salts or free base
T2 construct: purchased Perkin Elmer ES-195-M400UA
Procedure, shortened: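 Frozen human MC1R membranes were incubated with in-house iodinated, HPLC-purified [125I]NDP-MSH for 1 hr at 37° C. Binding was measured as displacement of the labeled peptide.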

human MC1R [2] = molecular target: T1, human MC1R; assay: cAMP stimulation assay, agonist mode, HEK 293 cells transiently expressing MC1 receptor (Alphascreen); format: cell-based; set-up: host or cells: HEK 293 (transient transfection); details: HEK293 cell; read-out: human MC1R agonism (cAMP EC50 HEK293 cell)
Experimental: HEK 293 cells transiently expressing the melanocortin MC1 receptor were suspended in stimulation buffer (Hanks buffered saline solution (HBSS), 0.1% bovine serum albumin, protease inhibitors and 0.5 mM 3-Isobutyl-1-methylxanthine) at 4×10^6 cells/mL. 5 μl of cells, plus the compounds/peptides as described below, were added to wells of a 384-well plate as soon as possible after resuspension.
To detect agonist activity, test compounds at varying concentrations were diluted in stimulation buffer at two times concentrate and 5 μl was added to wells containing cells. Positive control wells contained NDP-MSH or alpha-MSH alone (no compound) at two times concentrate
Basal level (of cAMP) control wells contained stimulation buffer only (no agonist or compounds). Known concentrations of cAMP (standards) in stimulation buffer were included on the plate, but no cells were added to these wells. The plate was then incubated for 30 mins at 37° C. with gentle shaking. After incubation, 10 μl of lysis buffer (10% Tween 20, 1 M HEPES, 0.1% BSA, protease inhibitors, ddH2O) was added to all wells to be measured. Detection of cAMP was then achieved using the Alphascreen cAMP kit (Perkin Elmer, USA), briefly described as follows. A dilution of 10 μl acceptor beads/mL of lysis buffer was prepared in low light conditions. 5 μl of diluted acceptor beads were added to each well to be measured, then the plate was incubated for 30 mins at room temperature, in the dark, with gentle shaking. In low light conditions, donor beads were diluted at 10 μl/mL of lysis buffer, to which 0.75 μl biotinylated cAMP/mL of lysis buffer was added. This mixture was allowed to incubate for 30 mins at room temperature (in the dark) before proceeding with the assay. Following incubation, 5 μl/mL of biotinylated cAMP/Donor bead mix were added per well in low light conditions and the plate was incubated in the dark, at room temperature, for a further hr. Plates were read on an Envision plate reader (Perkin Elmer) after 1 hr and ˜16 hrs incubation. cAMP concentration in the cells was determined by the use of a ‘standard curve’ generated from the output of known cAMP concentrations as described below.
Each assay plate contained a “standard curve” of known concentrations of cAMP, in 10 fold dilutions. This is an essential part of the assay as there is high inter-plate variability. The plates were read on an Envision multilabel plate reader fitted with Alphascreen technology and the raw data was imported into GraphPad Prism 4 software (GraphPad, USA) for analysis.

T1 sequence (Q01726 whole entry): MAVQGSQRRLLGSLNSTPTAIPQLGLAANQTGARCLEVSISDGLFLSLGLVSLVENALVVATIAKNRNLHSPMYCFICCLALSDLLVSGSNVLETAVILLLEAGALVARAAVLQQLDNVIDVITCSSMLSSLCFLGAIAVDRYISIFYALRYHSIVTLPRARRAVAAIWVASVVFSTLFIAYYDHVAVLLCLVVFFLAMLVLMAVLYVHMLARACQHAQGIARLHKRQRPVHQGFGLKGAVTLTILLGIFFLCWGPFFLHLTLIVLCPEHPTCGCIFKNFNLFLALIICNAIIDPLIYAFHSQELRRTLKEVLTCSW
T2 sequence (Q01726 whole entry): as above

human MC1R agonism (cAMP, fold incease over basal level) (human MC1R [1])	IC50 (human MC1R (hMC1R))	EC50 (human MC1R [2])	SMILES
2.5 fold	< 10 µM		N=C(N)NCCC[C@H]1N[C@@H](CNC(=O)c2ccc(-c3ccccc3)cc2)CCN(C(c2ccccc2)c2ccccc2)C1=O [Compound 186, N-(((3R,5R)-1-benzhydryl-3-(3-guanidinopropyl)-2-oxo-1,4-diazepan-5-yl)methyl)biphenyl-4-carboxamide]
1.5 fold	< 10 µM		N=C(N)NCCC[C@@H]1N[C@@H](CNC(=O)c2ccc(-c3ccccc3)cc2)CCN(C(c2ccccc2)c2ccccc2)C1=O [Compound 185, N-(((3S,5R)-1-benzhydryl-3-(3-guanidinopropyl)-2-oxo-1,4-diazepan-5-yl)methyl)biphenyl-4-carboxamide]
	< 10 µM	11 µM	N=C(N)NCCC[C@@H]1N[C@H](CNC(=O)c2ccc(Oc3ccccc3)cc2)CCN(CC(c2ccccc2)c2ccccc2)C1=O [Compound 112, N-(((3S,5S)-1-(2,2-diphenylethyl)-3-(3-guanidinopropyl)-2-oxo-1,4-diazepan-5-yl)methyl)-4-phenoxybenzamide]
	< 10 µM	16 µM	N=C(N)NCCC[C@@H]1N[C@H](CNC(=O)c2ccc3ccccc3c2)CCN(CC2CCCCC2)C1=O [Compound 116, N-(((3S,5S)-1-(cyclohexylmethyl)-3-(3-guanidinopropyl)-2-oxo-1,4-diazepan-5-yl)methyl)-2-naphthamide]
	< 10 µM	7 µM	CC(=O)N[C@@H](Cc1c[nH]cn1)C(=O)N[C@H](Cc1ccccc1)[C@@H]1CCN(CCc2c[nH]c3ccccc23)C(=O)[C@H](CCCNC(=N)N)N1 [Compound 119, (S)—N—((R)-1-((3S,5S)-1-(2-(1H-indol-3-yl)ethyl)-3-(3-guanidinopropyl)-2-oxo-1,4-diazepan-5-yl)-2-phenylethyl)-2-acetamido-3-(1H-imidazol-4-yl)propanamide]
1.5 fold	< 10 µM		NCC[C@@H]1N[C@H](CNC(=O)/C=C/c2ccc(Cl)cc2)CCN(CC(c2ccccc2)c2ccccc2)C1=O [Compound 136, (E)-N-(((3S,5S)-3-(2-aminoethyl)-1-(2,2-diphenylethyl)-2-oxo-1,4-diazepan-5-yl)methyl)-3-(4-chlorophenyl)acrylamide]
	< 10 µM		O=C(NC[C@@H]1CCN(CC(c2ccccc2)c2ccccc2)C(=O)[C@H](CCN2CCCCC2)N1)c1ccc(Cl)c(Cl)c1 [Compound 137, 3,4-dichloro-N-(((3S,5S)-1-(2,2-diphenylethyl)-2-oxo-3-(2-(piperidin-1-yl)ethyl)-1,4-diazepan-5-yl)methyl)benzamide]
	< 1 µM		CC[C@H](CN1CC[C@@H](CNC(=O)c2ccc3cc(Cl)ccc3c2)N[C@@H](CC(C)(C)N2CCCCC2)C1=O)c1ccccc1 [Compound 171, 6-chloro-N-(((3S,5S)-3-(2-methyl-2-(piperidin-1-yl)propyl)-2-oxo-1-((S)-2-phenylbutyl)-1,4-diazepan-5-yl)methyl)-2-naphthamide]
1.5 fold	< 10 µM	78 µM	N=C(N)NCCC[C@H]1C(=O)N(C(c2ccccc2)c2ccccc2)CC[C@H]2CN(Cc3ccc(-c4ccccc4)cc3)C(=O)N21 [Compound 110, 1-(3-((5S,9aS)-7-benzhydryl-2-(biphenyl-4-ylmethyl)-3,6-dioxooctahydro-1H-imidazo[1,5-d][1,4]diazepin-5-yl)propyl)guanidine]
	< 10 µM		CN(C[C@@H]1CCN(CC(c2ccccc2)c2ccccc2)C(=O)[C@H](CCCN)N1)C(=O)c1ccc2cc(Br)ccc2c1 [Compound 104, N-(((3S,5S)-3-(3-aminopropyl)-1-(2,2-diphenylethyl)-2-oxo-1,4-diazepan-5-yl)methyl)-6-bromo-N-methyl-2-naphthamide]
	< 10 µM		O=C(NC[C@@H]1CCN(CC(c2ccccc2)c2ccccc2)C(=O)[C@H](CCN2CCCCC2)N1)c1cc(-c2ccc(Cl)cc2)on1 [Compound 162, 5-(4-chlorophenyl)-N-(((3S,5S)-1-(2,2-diphenylethyl)-2-oxo-3-(2-(piperidin-1-yl)ethyl)-1,4-diazepan-5-yl)methyl)isoxazole-3-carboxamide]

— patent publication US20140128380A1, “METHODS OF MODULATING THE ACTIVITY OF THE MC1 RECEPTOR AND TREATMENT OF CONDITIONS RELATED TO THIS RECEPTOR” (Mimetica Pty Ltd, priority 2009, published 2014)
